“And” between values parts separate entries of the source, which are not always exact repeats. Identical values can stand only once.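 In this assay, cells in 96-well plates receive the compound at five concentrations for 48 hours. Endpoints are linearly interpolated between the surrounding concentrations. GI50 = concentration required for 50% inhibition of growth. TGI: concentration producing complete growth inhibition.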
Tests used:
Assay in all cases: growth of human tumour cells (NCI), 48 h
UO-31 renal = system: UO-31 renal
ACHN renal = system: ACHN renal
NCI-H226 lung = system: NCI-H226 lung
U251 CNS = system: U251 CNS
UACC-62 melanoma = system: UACC-62 melanoma
NCI-H460 lung = system: NCI-H460 lung
MOLT-4 leukemia = system: MOLT-4 leukemia
SW-620 colon = system: SW-620 colon
SK-MEL-2 melanoma = system: SK-MEL-2 melanoma
RPMI-8226 leukemia = system: RPMI-8226 leukemia

Row | Compound | TGI (UO-31 renal) | TGI (ACHN renal) | TGI (NCI-H226 lung) | TGI (U251 CNS) | TGI (UACC-62 melanoma) | TGI (NCI-H460 lung) | TGI (MOLT-4 leukemia) | TGI (SW-620 colon) | TGI (SK-MEL-2 melanoma) | TGI (RPMI-8226 leukemia) | GI50 (UO-31 renal) [µM] | GI50 (ACHN renal) [µM] | GI50 (U251 CNS) [µM] | GI50 (UACC-62 melanoma) [µM] | GI50 (NCI-H460 lung) [µM] | GI50 (MOLT-4 leukemia) [µM] | GI50 (SW-620 colon) [µM] | GI50 (SK-MEL-2 melanoma) [µM] | GI50 (RPMI-8226 leukemia) [µM] | GI50 (NCI-H226 lung) [µM]
1 | Cc1ccccc1CN1CC2=C(CCN(Cc3ccccc3)C2=O)N2CCN=C12 | > 100 µM | > 100 µM | > 100 µM | > 100 µM | > 100 µM | > 100 µM | > 100 µM | > 100 µM | > 81.6 µM | > 100 µM | – | – | – | – | – | – | – | – | – | –
2 | CC(=O)OCC1OC(OC2CC3C(C)(C)C(OC(C)=O)CC[C@]3(C)C3CCC45CC4(CC[C@H]5C(C)CC(O)[C@@H](O)C(C)(C)O)[C@]23C)C(O)C(O)C1O (stereo partly drawn) | 12.3 µM and 32.5 µM | 14.3 µM and 29 µM | 13.3 µM | 12.3 µM and 15.6 µM | 12.2 µM and 16.5 µM | 16.2 µM and 19.5 µM | 45 µM and 10.5 µM | 14 µM and 13.7 µM | 16.8 µM and 7.36 µM | 6.74 µM and 11.6 µM | 18.5 | 15 | 4.3 | 4.9 | 6.88 | 0.0045 | 3.54 | 2.87 | 2.09 | –
3 | COc1ccc(C2=NN(C(=O)COc3ccc(Cl)cc3)C(O)(c3cc(F)c(Cl)cc3Cl)C2)cc1OC (stereo not drawn) | 5.14 µM | 3.28 µM | 8.24 µM | 16.6 µM | 18.7 µM | 24.3 µM | > 20.6 µM | 2.58 µM | 3.24 µM | 5.78 µM | 2.08 | 1.63 | 5.69 | 5.6 | 8.87 | 1.47 | 0.869 | 1.11 | 1.79 | 2.84
4 | CCOC(=O)Cc1csc(/N=C2\NC(=O)/C(=C3\C(=O)N(C)c4ccccc43)S2)n1 | > 100 µM | > 100 µM | > 100 µM | > 100 µM | 83.6 µM | 55.9 µM | > 100 µM | > 100 µM | > 100 µM | > 100 µM | 35.6 | 35.9 | 33.6 | 26.1 | 20.7 | 40.3 | 52.1 | 24.2 | 32.4 | 28.6
5 | CCN(CC)CCOc1ccc(Nc2ncc3cc(-c4ccc(O)cc4)c(=O)n(C)c3n2)cc1 | 1.6 µM | 17.5 µM | 22.6 µM | 2.81 µM | 41 µM | 8.85 µM | 21.8 µM | 4.01 µM | 39.5 µM | 44.5 µM | 0.0396 | 0.0618 | 1.4 | 17.5 | 3.77 | 0.2 | 2.01 | 18.9 | 14.5 | 4.61
6 | COc1ccc(C(=O)C(c2ccc(OC)cc2)C2(O)C(=O)Nc3c(C)cc(Cl)cc32)cc1 (stereo not drawn) | > 100 µM | > 100 µM | > 100 µM | > 100 µM | 54.2 µM | > 100 µM | 54.5 µM | > 100 µM | > 100 µM | 80.4 µM | – | – | – | – | – | – | – | – | – | –
7 | CCCCCNC(=O)[C@@H]1CCCN2C(=O)CC[C@H](NC(=O)[C@H](Cc3ccc(OP(=O)(O)O)cc3)NC(C)=O)C(=O)N12 | > 25 µM | > 25 µM | > 25 µM | > 25 µM | > 25 µM | > 25 µM | > 25 µM | > 25 µM | > 25 µM | > 25 µM | > 25 | > 25 | > 25 | > 25 | > 25 | > 25 | > 25 | > 25 | > 25 | > 25
8 | c1nc2cscc2c2cscc12 | > 100 µM | > 100 µM | > 100 µM | > 100 µM | > 100 µM | > 100 µM | > 100 µM | > 100 µM | > 100 µM | > 100 µM | – | – | – | – | – | – | – | – | – | –
9 | O=C1/C(=C/c2ccc(O)c([N+](=O)[O-])c2)CCC/C1=C\c1ccc(O)c([N+](=O)[O-])c1 | 25.5 µM and 39.5 µM | 14.8 µM and 38.5 µM | 24.7 µM and > 100 µM | 18.3 µM and 26.9 µM | 15.5 µM and 37.2 µM | 31.6 µM | 50 µM and 47 µM | 50 µM and 99.2 µM | 32.2 µM and 27.2 µM | 50 µM and 32.6 µM | 20.7 | 20.4 | 14 | 14.1 | – | 17.4 | 30.1 | 13 | 10 | 33.7
10 | N=C1c2nc3n(c2C(=O)c2nc4n(c21)CCCC4)CCCC3 | 28.6 µM | > 100 µM | 3.38 µM | 48.7 µM | 2.04 µM | 3.54 µM | > 100 µM | 24.4 µM | > 65 µM | > 100 µM | 4.03 | 20.5 | 5.75 | 0.784 | 1.59 | 47.2 | 3.8 | 23.4 | 27.5 | 1.08
11 | [N-]=[N+]=C(C(=O)OCC#CCOC(=O)C(=[N+]=[N-])S(=O)(=O)c1ccccc1)S(=O)(=O)c1ccccc1 | 0.519 µM | > 10 µM | > 10 µM | > 10 µM | > 10 µM | > 10 µM | > 10 µM | > 10 µM | > 10 µM | > 10 µM | – | – | – | – | – | – | – | – | – | –
12 | Clc1ccc(-n2nnc(C3=NCCCN3)c2-c2ccccc2)cc1 | > 100 µM | > 100 µM | > 100 µM | > 100 µM | > 100 µM | > 100 µM | > 100 µM | > 100 µM | > 100 µM | > 100 µM | – | – | – | – | – | – | – | – | – | –
13 | O=C(c1cc(F)c(Cl)cc1Cl)N1N=C(c2ccccc2)CC1(O)c1ccccc1 (stereo not drawn) | 30.1 µM | 59.4 µM | 36.5 µM | 38.5 µM | 23.9 µM | 36.7 µM | 43 µM | 36.9 µM | 38 µM | 35.4 µM | 15.7 | 23 | 18.4 | 11.1 | 19.1 | 19.8 | 18.9 | 18.1 | 11.5 | 17.3
14 | COc1cc(Cl)cc(-c2nn(C(=O)NCCN3CCN(C)CC3)cc2-c2ccncc2)c1 | 62 µM | > 100 µM | 57.3 µM | > 100 µM | 20.3 µM | 60.4 µM | > 100 µM | > 100 µM | 46 µM | > 100 µM | 11.6 | 4.16 | 15.1 | 4.95 | 21 | 29.4 | 33.1 | 19.3 | 21.9 | 4.29

Reference: PubChem BioAssay (NCI)
